For orientation: Km means the concentration of substrate that gives half-maximal velocity. For orientation: IC50 means the point on the concentration scale where inhibition reaches its midpoint. Low values mean greater potency, high ones weaker potency.

The source of these data is US11459319B2, “Cytochrome P450 inhibitors and uses thereof” (ANGION BIOMEDICA CORP., priority 2014, dated 2022).

Some results are limits rather than exact numbers.

Data set [1] addresses T1, human recombinant enzyme (CYP26) (Homo sapiens, UniProt O43174).
T1 sequence (O43174 1-497): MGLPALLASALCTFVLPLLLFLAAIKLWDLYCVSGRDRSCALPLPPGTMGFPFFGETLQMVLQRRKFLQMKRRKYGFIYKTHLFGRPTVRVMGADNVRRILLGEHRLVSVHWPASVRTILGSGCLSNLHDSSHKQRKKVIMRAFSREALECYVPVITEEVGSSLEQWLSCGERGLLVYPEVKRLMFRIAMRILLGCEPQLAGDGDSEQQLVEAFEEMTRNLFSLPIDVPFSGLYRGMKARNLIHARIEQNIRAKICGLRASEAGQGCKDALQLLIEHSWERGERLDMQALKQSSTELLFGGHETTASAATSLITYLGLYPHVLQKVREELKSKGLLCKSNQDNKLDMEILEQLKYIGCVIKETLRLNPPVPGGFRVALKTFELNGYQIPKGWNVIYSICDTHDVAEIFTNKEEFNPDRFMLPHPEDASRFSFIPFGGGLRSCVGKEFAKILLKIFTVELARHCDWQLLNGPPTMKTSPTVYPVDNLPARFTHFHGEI
The settings on record: read-out: Km reported for the human recombinant enzyme; cited from earlier work.

Data set [2] addresses T2, CYP26 (Mus musculus, UniProt O55127).
T2 construct: substrate depletion assay for ATRA metabolism in mouse microsomes; tissue Xenotech; host or cells: liver microsomes of mice treated with ATRA for four days
T2 sequence (O55127 1-497): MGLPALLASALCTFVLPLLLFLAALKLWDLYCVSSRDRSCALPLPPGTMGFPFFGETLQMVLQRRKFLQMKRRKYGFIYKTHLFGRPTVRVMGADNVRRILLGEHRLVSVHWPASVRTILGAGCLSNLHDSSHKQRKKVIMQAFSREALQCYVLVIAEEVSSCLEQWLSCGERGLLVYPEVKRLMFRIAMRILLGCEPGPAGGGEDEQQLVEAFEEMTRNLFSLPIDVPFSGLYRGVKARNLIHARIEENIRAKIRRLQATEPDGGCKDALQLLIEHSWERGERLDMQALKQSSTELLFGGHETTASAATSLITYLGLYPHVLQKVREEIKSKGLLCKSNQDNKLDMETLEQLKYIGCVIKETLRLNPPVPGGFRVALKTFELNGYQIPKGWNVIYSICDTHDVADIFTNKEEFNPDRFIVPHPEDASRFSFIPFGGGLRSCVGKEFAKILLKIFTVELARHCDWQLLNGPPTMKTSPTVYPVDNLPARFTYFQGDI
As to the kind of experiment: CYP26 inhibition: substrate depletion assay for ATRA metabolism in induced mouse liver microsomes. It is filed as biochemical.

Substrate in data set [3]: CC1=C(/C=C/C(C)=C/C=C/C(C)=C/C(=O)O)C(C)(C)CCC1
As to the kind of experiment: cells, lysate or membranes named. Particulars: other: induced mouse microsomes, Michaelis-Menten kinetics; pH 7.4.

For the molecule `CC1=C(/C=C/C(C)=C/C=C/C(C)=C/C(=O)O)C(C)(C)CCC1` [ATRA, all-trans retinoic acid], the Km in data set [1] is approximately 0.01 µM.

`CCC(CC)C(c1ccc2nc(OCC(C)(C)C(=O)O)sc2c1)n1cncn1` (stereo not shown) [Example-1, 3-((6-(2-Ethyl-1-(1H-1,2,4-triazol-1-yl)butyl)benzo[d]thiazol-2-yl)oxy)-2,2-dimethylpropanoic Acid]: the IC50 in data set [2] was less than 1000 nM.

`CCC(CC)C(c1ccc2nc(OCC(C)(C)C(=O)O)sc2c1)n1cnnc1` (stereo not shown) [Example-2, 3-((6-(2-Ethyl-1-(4H-1,2,4-triazol-4-yl)butyl)benzo[d]thiazol-2-yl)oxy)-2,2-dimethylpropanoic Acid]: the IC50 in data set [2] was less than 1000 nM. Still for that read-out and setting: the same measure for `CCC(CC)C(c1ccc2nc(OCC3(C(=O)O)CCCC3)sc2c1)n1cncn1` (stereo not shown) [Example-3, 1-(((6-(2-Ethyl-1-(1H-1,2,4-triazol-1-yl)butyl)benzo[d]thiazol-2-yl)oxy)methyl)cyclopentanecarboxylic Acid]: less than 1000 nM; for `CCC(CC)C(c1ccc2nc(OCC3(C(=O)O)CCCC3)sc2c1)n1cnnc1` (stereo not shown) [Example-4, 1-(((6-(2-Ethyl-1-(4H-1,2,4-triazol-4-yl)butyl)benzo[d]thiazol-2-yl)oxy)methyl)cyclopentanecarboxylic Acid]: less than 1000 nM. The same measure, in the same setting: the same measure for `CCC(CC)C(c1ccc2nc(OCC3(C(=O)O)CCCCC3)sc2c1)n1cncn1` (stereo not shown) [Example-5, 1-(((6-(2-ethyl-1-(1H-1,2,4-triazol-1-yl)butyl)benzo[d]thiazol-2-yl)oxy)methyl)cyclohexanecarboxylic Acid]: less than 1000 nM; for `CCC(CC)C(c1ccc2nc(OCC3(C(=O)O)CCCCC3)sc2c1)n1cnnc1` (stereo not shown) [Example-6, 1-(((6-(2-Ethyl-1-(4H-1,2,4-triazol-4-yl)butyl)benzo[d]thiazol-2-yl)oxy)methyl)cyclohexanecarboxylic Acid]: less than 1000 nM. Same read-out and setting: the same measure for `CCC(CC)C(c1ccc2nc(-c3ccc(C(=O)O)cc3)sc2c1)n1cncn1` (stereo not shown) [Example-7, 4-(6-(2-ethyl-1-(1H-1,2,4-triazol-1-yl)butyl)benzo[d]thiazol-2-yl)benzoic Acid]: less than 1000 nM. `CCC(CC)C(c1ccc2nc(-c3ccc(C(=O)O)cc3)sc2c1)n1cnnc1` (stereo not shown) [Example-8, 4-(6-(2-ethyl-1-(4H-1,2,4-triazol-4-yl)butyl)benzo[d]thiazol-2-yl)benzoic Acid]: the IC50 in data set [2] is less than 1000 nM.

B1: CYP26 (Mus musculus) (protein)
chain: MGLPALLASALCTFVLPLLLFLAALKLWDLYCVSSRDRSCALPLPPGTMGFPFFGETLQMVLQRRKFLQMKRRKYGFIYKTHLFGRPTVRVMGADNVRRILLGEHRLVSVHWPASVRTILGAGCLSNLHDSSHKQRKKVIMQAFSREALQCYVLVIAEEVSSCLEQWLSCGERGLLVYPEVKRLMFRIAMRILLGCEPGPAGGGEDEQQLVEAFEEMTRNLFSLPIDVPFSGLYRGVKARNLIHARIEENIRAKIRRLQATEPDGGCKDALQLLIEHSWERGERLDMQALKQSSTELLFGGHETTASAATSLITYLGLYPHVLQKVREEIKSKGLLCKSNQDNKLDMETLEQLKYIGCVIKETLRLNPPVPGGFRVALKTFELNGYQIPKGWNVIYSICDTHDVADIFTNKEEFNPDRFIVPHPEDASRFSFIPFGGGLRSCVGKEFAKILLKIFTVELARHCDWQLLNGPPTMKTSPTVYPVDNLPARFTYFQGDI
As to B1, the Michaelis constant (Km) in data set [3] was found to be 0.004 µM.
